# Source: the SangsterLogP compilation
# What was measured:
# [1] = method code SF-AS, from Woolston, C.; Lee, J.; Swinbourne, F. (1994). Partition coefficients and chromatographic parameters of some substituted 1,3-thiazolidin-4-ones. Ind. J. Chem., Sect. B, 33(6)590-592.; details: pH 7.4
Structure (SMILES),logP,logD [1]
O=C1CSC(c2ccc(Cl)cc2)N1c1ccccc1 (stereo not drawn),2.52,
O=C1CSC(c2cccc(Br)c2)N1c1ccccc1 (stereo not drawn),2.44,
O=C1CSC(c2ccccc2)N1c1cccc([N+](=O)[O-])c1 (stereo not drawn),1.9,
COc1cccc(C2SCC(=O)N2c2ccccc2)c1 (stereo not drawn),1.96,
O=C1CS(=O)C(c2ccccc2)N1c1ccccc1 (stereo not drawn),1.07,
COc1ccc(C2SCC(=O)N2c2ccccc2)cc1 (stereo not drawn),1.97,
O=C1CS(=O)(=O)C(c2cccc(Br)c2)N1c1ccccc1 (stereo not drawn),1.63,
COc1ccc(N2C(=O)CS(=O)(=O)C2c2ccccc2)cc1 (stereo not drawn),1.09,
O=C1CSC(c2cccc([N+](=O)[O-])c2)N1c1ccccc1 (stereo not drawn),1.73,
COc1ccc(N2C(=O)CS(=O)C2c2ccccc2)cc1 (stereo not drawn),1.07,
Cc1ccc(N2C(=O)CSC2c2ccccc2)cc1 (stereo not drawn),2.32,
O=C1CS(=O)C(c2ccccc2)N1c1cccc([N+](=O)[O-])c1 (stereo not drawn),1.09,
O=C1CS(=O)(=O)C(c2ccccc2)N1c1cccc([N+](=O)[O-])c1 (stereo not drawn),1.09,
O=C1CSC(c2cccc(Cl)c2)N1c1ccccc1 (stereo not drawn),2.32,
O=C1CS(=O)C(c2cccc(Br)c2)N1c1ccccc1 (stereo not drawn),1.63,
O=C1CSC(c2cccc(F)c2)N1c1ccccc1 (stereo not drawn),1.9,
O=C1CSC(c2ccc([N+](=O)[O-])cc2)N1c1ccccc1 (stereo not drawn),1.75,
O=C1CS(=O)(=O)C(c2ccccc2)N1c1ccccc1 (stereo not drawn),,1.23
O=C1CSC(c2ccc(Br)cc2)N1c1ccccc1 (stereo not drawn),2.66,
O=C1CSC(c2ccccc2)N1c1ccc(O)cc1 (stereo not drawn),1.29,
Cc1cccc(C2SCC(=O)N2c2ccccc2)c1 (stereo not drawn),2.3,
N#Cc1ccc(C2SCC(=O)N2c2ccccc2)cc1 (stereo not drawn),1.32,
O=C1CSC(c2ccccc2)N1c1ccc(Cl)cc1 (stereo not drawn),2.42,
O=C1CSC(c2ccccc2)N1c1ccccc1 (stereo not drawn),1.88,
O=C1CSC(c2ccccc2)N1c1ccc(Br)cc1 (stereo not drawn),2.56,
Cc1ccc(C2SCC(=O)N2c2ccccc2)cc1 (stereo not drawn),2.48,
COc1ccc(N2C(=O)CSC2c2ccccc2)cc1 (stereo not drawn),1.92,
O=C1CSC(c2ccccc2)N1c1cccc(Br)c1 (stereo not drawn),2.58,
